Results from patent US7456185B2, “Substituted quinazoline compounds useful as p38 kinase inhibitors” (Roche Palo Alto LLC, priority 2003, dated 2008).

Question: With CCC(CO)(CO)Nc1ncc2cc(Oc3ccc(F)cc3F)ccc2n1 [Example 1, 2-[6-(2,4-Difluoro-phenoxy)-quinazolin-2-ylamino]-2-ethyl-propane-1,3-diol] as the compound, how does the melting point read?
Answer: 110 to 112.9 °C

Question: With CC(C)Nc1ncc2cc(Oc3ccc(F)cc3F)ccc2n1 [Example 2] as the compound, how does the melting point read?
Answer: 160 to 162.6 °C

Question: Which melting point does the source give for OCCC(CCO)Nc1ncc2cc(Oc3ccc(F)cc3F)ccc2n1 [Example 3, 3-[6-(2,4-Difluorophenoxy)-quinazolin-2-ylamino]-pentane-1,5-diol] here?
Answer: 112.9 to 113.6 °C

Question: Which melting point does the source give for OCC(O)CNc1ncc2cc(Oc3ccc(F)cc3F)ccc2n1 (centres unmarked) [Example 4, 3-[6-(2,4-Difluoro-phenoxy)-quinazolin-2-ylamino]-propane-1,2-diol] here?
Answer: 161.5 to 162.7 °C

Question: For CS(=O)(=O)CCNc1ncc2cc(Oc3ccc(F)cc3F)ccc2n1 [Example 5], which melting point is on record?
Answer: 160.1 to 161.5 °C

Question: Which melting point does the source give for CS(=O)(=O)N1CCC(Nc2ncc3cc(Oc4ccc(F)cc4F)ccc3n2)CC1 [Example 6] here?
Answer: 173.9 to 177.1 °C

Question: With OC1CCC(Nc2ncc3cc(Oc4ccc(F)cc4F)ccc3n2)CC1 (centres unmarked) [Example 8, 4-[6-(2,4-Difluoro-phenoxy)-quinazolin-2-ylamino]-cyclohexanol] as the compound, how does the melting point read?
Answer: 176.2 to 176.8 °C

Question: Which melting point does the source give for CCOc1ccc2nc(NCC[S+](C)[O-])ncc2c1 (centres unmarked) [Example 11, (6-Ethoxy-quinazolin-2-yl)-(2-methanesulfinyl-ethyl)-amine] here?
Answer: 152.7 to 154.6 °C
